Counter-ions that a name gives are not always drawn. Like-named read-outs stand apart in the source and are kept apart here.

We go through two molecules from patent US20250214966A1, “Crystalline Salt Form Of A SHP2 Inhibitor” (Array BioPharma Inc., priority 2022, published 2025).

What all share (format): physicochemical
The nature of data set [1]: Photostability (2xICH), HPLC. From the text:
Photostability (Table 12): Sample preparation: Control—about 1 g of sample was transferred into a weighting bottle and covered with a glass cover. The sample was wrapped in aluminum foil to protect from light and placed into the photostability chamber. Photostability sample: about 1 g of sample was transferred into a weighing bottle, then placed into the photostability chamber. Storage conditions: The photostability samples were stored according to ICH Photostability Option 2: A cool white fluorescent lamp designed to produce an output similar to that specified in ISO 10977 (1993), a near UV fkuorescent lamp having a spectral distribution from 320 nm to 400 nm with a maximum energy emission between 350 nm and 370 nm; a significant portion of UV should be in both bands of 320 to 360 nm and 360 to 400 nm. The photo stability and dark control samples were exposed to the light equipment providing photo intensity if 5000±500 Lx (near ultraviolet energy 0.84 W/m^2±10%) and irradiated for 12 days (samples exposed to light providing an overall illumination of not less than 1.2 million lux hours and an integrated near UV energy of not less than 200 watt hours/quare meter).
Photostability (HPLC) (Table 12): An Agilent 1100 HPLC was used with a Waters XSelect HSS T3 Column (100 angstrom, 4.6×150 mm, 5 μm). The column temperature was set to 20° C., the UV wavelength set to 254 nm, the injection volume was 10 μL, with a flow rate of 1.0 mL/min. 10 mM ammonium acetate adjusted to pH 4.8 was used as a mobile phase A, and acetonitrile was used as mobile phase B. The gradient method was set up to achieve 15% mobile phase B at 0 minutes, 95% mobile phase B at 17 minutes—held until 22 minutes, 15% mobile phase. […]
Physical (PXRD) (Table 13): Powder X-ray diffraction analysis was conducted using a Bruker AXS D8 Endeavor diffractometer equipped with a Cu radiation source. […] Diffracted radiation was detected by a PSD-Lynx Eye detector, with the detector PSD opening set at 2.99 degrees. […]

Data set [2] is described as follows: Grinding assessment of form and crystallinity.
Data set [3] is described as follows: Thermal analysis TGA/DSC (Tables 12 and 13). The conditions noted are these: 10° C./minute heating rate. As to the method:
Thermogravimetric Analysis (“TGA”) (Table 12): Thermogravimetric analysis was conducted using a Discovery TGA (TA instruments) thermogravimetric analyzer. Samples of approximately 10 mg were weighed into aluminum pans and heated from ambient to 300° C. at 10° C./minute heating rate under nitrogen purge (10 mL/min for both sample chamber and balance).
Differential Scanning Calorimetry (“DSC”) (Table 12): DSC measurements were performed with Discovery DSC (TA instruments) equipped with a refrigerated cooling accessory. All the experiments were performed in standard/Tzero aluminum pans. The cell constant was determined using indium and temperature calibration was performed using indium and tin as standards. All the measurements were done under continuous dry nitrogen purge (50 mL/min). Approximately 1-5 mg of solid sample was weighed into a Tzero aluminum pan, sealed non-hermetically and heated from 0° C. to 250° C. at 10° C./min heating rate. The experimental data were analyzed using commercially available software (TA Universal Analysis 2000/Trios software, TA Instruments).
TGA/DSC (Table 13): A Simultaneous DSC/TGA instrument was used for the thermal analysis. Approximately 3.2 mg of the API was placed in an aluminum Tzero DSC pan was loaded into the instrument via autosampler. The sample was equilibrated to 35° C. in the instrument prior to analysis and was ramped to 400° C. at a ramp rate of 10° C./min. Dry nitrogen gas from the in-house supply was used.

Data set [4] can be described thus: Solubility in buffers, HPLC of mother liquors (Tables 12 and 13). Particulars: for solubility at 25 h: 25 °C, thermodynamic from solid, read-out: Solubility Concentration. On the procedure: Upon addition of the buffer solutions, the samples were vortexed. The samples were rotated at 40° C. for 8 hours, 15° C. for 5 hours, and 25° C. for 12 hours in an Envirogenie thermomixer. After the thermomixing cycle, the slurries were isolated by centrifugation filtration and the isolated mother liquors were analyzed by HPLC.
HPLC method (Tables 12 and 13): An Agilent 1290 UPLC instrument was used with a Waters XSelect HSS T3 Column (100 angstrom, 4.6×150 mm, 5 μm). The column temperature was set to 20° C., the UV wavelength set to 254 nm, the injection volume was 10 μL, with a flow rate of 1.0 mL/min. 10 mM Ammonium acetate adjusted to pH 4.8 was used as a mobile phase A, and acetonitrile was used as mobile phase B. The gradient method was set up to achieve 15% mobile phase B at 0 minutes, 95% mobile phase B at 17 minutes—held until 22 minutes, 15% mobile phase B at 22.1 minutes—held until 28 minutes.

For the molecule `Nc1nccc(Sc2cnc(N3CCC4(CC3)Cc3ccccc3[C@H]4N)nn2)c1Cl.Nc1nccc(Sc2cnc(N3CCC4(CC3)Cc3ccccc3[C@H]4N)nn2)c1Cl.O` [Example 2, (S)-1′-(6-((2-amino-3-chloropyridin-4-yl)thio)-1,2,4-triazin-3-yl)-1,3-dihydrospiro[indene-2,4′-piperidin]-1-amine Free Base Hemihydrate (Form 1)], the “Photostability (2xICH), photodeg RRT 1.16” value in data set [1] is approximately 0.36%. The “Photostability (2xICH), photodeg RRT 1.62” value in data set [1] is listed as approximately 0.32%. Besides, in data set [2], the “Grinding Assessment” value is reported as “No change in form or crystallinity”. Moreover, the “Decomposition Onset (° C.)” value in data set [3] is approximately 240 °C. Also, the “Dehyradtion Onset (° C.)” value in data set [3] is approximately 72 °C. The “Solubility Concentration” value in data set [4] (Water, Final pH 9.19, Final XRD Additional peak at 8°) worked out at 0.24 µg/mL; in data set [4] (pH 3, Final pH 4.51, Final XRD Freebase Form 1), 2044.85 µg/mL; in data set [4] (pH 4, Final pH 5.12, Final XRD Freebase Form 1) it was 301.79 µg/mL; in data set [4] (pH 5, Final pH 6.06, Final XRD Freebase Form 1) it was 58.53 µg/mL; in data set [4] (pH 6, Final pH 6.95, Final XRD Freebase Form 1), 32.25 µg/mL; in data set [4] (pH 7, Final pH 8.19, Final XRD Freebase Form 1) it was 10.05 µg/mL. Also, the “Solubility Concentration” value in data set [4] (pH 8, Final pH 9.13, Final XRD Insufficient solids) worked out at 0.56 µg/mL; in data set [4] (pH 9, Final pH 10.2, Final XRD Insufficient solids) it was 0.26 µg/mL; in data set [4] (pH 10, Final pH 3.94, Final XRD Insufficient solids) it was 0.45 µg/mL.
`Nc1nccc(Sc2cnc(N3CCC4(CC3)Cc3ccccc3[C@H]4N)nn2)c1Cl` [Example 3, (S)-1′-(6-((2-amino-3-chloropyridin-4-yl)thio)-1,2,4-triazin-3-yl)-1,3-dihydrospiro[indene-2,4′-piperidin]-1-amine Mono Succinate Salt Form 1]: the “Photostability (2xICH), decrease in purity” value in data set [1] was determined as 0.53% decrease in purity. Besides, the “Grinding Assessment” value in data set [2] was “Reduction in crystallinity”. The “Decomposition Onset (° C.)” value in data set [3] is approximately 180 °C. Moreover, the solubility at 25 h in data set [4] (Water, Final pH 5.01, Final XRD Succinate Form 1) was determined as 8180 µg/mL; in data set [4] (pH 3 buffer, aqueous buffer, pH 3, Final pH 4.5, Final XRD Succinate Form 1) it was 4220 µg/mL; in data set [4] (pH 4 acetate buffer, aqueous buffer, pH 4, Final pH 4.16, Final XRD Insufficient solids), 6400 µg/mL; in data set [4] (pH 5 buffer, aqueous buffer, pH 5, Final pH 5.08, Final XRD Succinate Form 1), 4440 µg/mL; in data set [4] (pH 6 phosphate buffer, aqueous buffer, pH 6, Final pH 5.37, Final XRD Freebase Form 1) it was 597 µg/mL; in data set [4] (pH 7 buffer, aqueous buffer, pH 7, Final pH 6.81, Final XRD Insufficient solids), 17.1 µg/mL. Besides, the solubility at 25 h turned out to be 2.66 µg/mL in data set [4] (pH 8 buffer, aqueous buffer, pH 8, Final pH 7.78, Final XRD Freebase Form 1); 0.18 µg/mL in data set [4] (pH 9 buffer, aqueous buffer, pH 9, Final pH 9.01, Final XRD Freebase Form 1); 0.17 µg/mL in data set [4] (pH 10 buffer, aqueous buffer, pH 10, Final pH 9.82, Final XRD Freebase Form 1).
